According to paper PMC5770958, “Dual Action of Mexiletine and Its Pyrroline Derivatives as Skeletal Muscle Sodium Channel Blockers and Anti-oxidant Compounds: Toward Novel Therapeutic Potential” (Frontiers in Pharmacology, 2018):
“And” between values parts separate entries of the source, which are not always exact repeats. Equal values may be shown once. “Also recorded” adds a separate entry of the source. Read-outs that look alike come from different tables or passages of the source.

What was measured:
[1] = Cell culture cytotoxicity assay (CCK-8), 8 h incubation; format: cell-based, Murine; settings: mouse, C2C12 skeletal muscle cells, 8 h of incubation, read-out: Cytotoxic effect IC50
Procedure: (§1) Murine C2C12 skeletal muscle cells were cultured in DMEM supplemented with 10% fetal bovine serum, 1% penicillin, 1% streptomycin and 1% glutamine and were maintained at 37°C in 5% CO2/95% air. Cells obtained by sub-confluent cultures (about 70%) were seeded in 96 multiwell plate at a density of approximately 4.5 × 10^3 cells per well. Eighteen hours after seeding, either the cytotoxic effect of H2O2, mexiletine, Me5, their tetramethyl-pyrroline derivatives, and PP2 or the potential protective effect of all above mentioned compounds and N-acetyl cysteine (NAC) against the H2O2-induced oxidative stress has been investigated. […] To evaluate the cyto-protective effect of the drugs, C2C12 cells were incubated with the test compounds 2 h before the application of H2O2 at 300 μM and 1 mM, and then maintained for additional 6h. Two hours before absorbance lecture, 10 μl of Cell Counting Kit-8 pure solution (CCK-8 Alexis Biochemicals) was added into each well. […] The quantity of formazan dye is directly proportional to the number of viable cells. Absorbance was measured at 450 nm with a microplate spectrophotometer (Victor V31420-40, PerkinElmer). […]
(§2) Fresh stock solutions of the test compounds were made daily and diluted in DMEM as required. […] Accordingly, cell viability in the presence of drugs was expressed as percent change with respect to the cell treated with vehicle alone, after proper subtraction of blank absorbance.
(§3) All data were expressed as mean ± S.E.M. The IC50 values, in the various experimental conditions, were determined by using a non-linear least squares fit of the concentration-response curves to the following logistic equation: Effect = −100/{1+(K/[drug])n}, where Effect is the percentage change of INa; −100 is the maximal percentage block of INa; K is IC50; n is the logistic slope factor, and [drug] is the molar concentration of the compound (Talon et al., [2001]). […] The h∞ curves have been fitted with a single Boltzmann, and the potential at which 50% of the sodium channels were inactivated (Vh1/2) was calculated at the inflection point of the curves. […]

[2] = tested on: skeletal-muscle sodium channels (NaV1.4); assay: Voltage-clamp recordings of INa in single muscle fibers: tonic block and use-dependent block; format: cell-based, Rana Esculenta; settings: for IC50: HP -100 mV to -20 mV; for BT/BUD (IC50 TB/IC50 UDB 10-Hz): ratio tonic to 10-Hz use-dependent block
C2C12 cells [3] = assay: Cyto-protective effect against H2O2-induced oxidative stress (CCK-8); format: cell-based, Murine; settings: for Cyto-protective effect: C2C12, 300 μM H2O2, drug 0.1-30 μM, 2 h before H2O2 plus 6 h
Procedure: Murine C2C12 skeletal muscle cells were cultured in DMEM supplemented with 10% fetal bovine serum, 1% penicillin, 1% streptomycin and 1% glutamine and were maintained at 37°C in 5% CO2/95% air. Cells obtained by sub-confluent cultures (about 70%) were seeded in 96 multiwell plate at a density of approximately 4.5 × 10^3 cells per well. Eighteen hours after seeding, either the cytotoxic effect of H2O2, mexiletine, Me5, their tetramethyl-pyrroline derivatives, and PP2 or the potential protective effect of all above mentioned compounds and N-acetyl cysteine (NAC) against the H2O2-induced oxidative stress has been investigated. […] To evaluate the cyto-protective effect of the drugs, C2C12 cells were incubated with the test compounds 2 h before the application of H2O2 at 300 μM and 1 mM, and then maintained for additional 6h. Two hours before absorbance lecture, 10 μl of Cell Counting Kit-8 pure solution (CCK-8 Alexis Biochemicals) was added into each well. The CCK-8 solution contains the monosodium salt of [2-(2-methoxy-4-nitrophenyl)-3-(4-nitrophenyl)-5-(2,4-disulfophenyl)-2H-tetrazolium (WST-8), which is reduced by cellular dehydrogenases to give a yellow colored product (formazan) absorbing at 450 nm. The quantity of formazan dye is directly proportional to the number of viable cells. Absorbance was measured at 450 nm with a microplate spectrophotometer (Victor V31420-40, PerkinElmer). This assay was successfully used to investigate on the mechanism of ion channel-regulated cell proliferation in cell lines (Tricarico et al., [2013]).
Fresh stock solutions of the test compounds were made daily and diluted in DMEM as required. Only for the tetramethyl-pyrroline derivatives and PP2, stock solutions in DMSO were prepared and then diluted in DMEM. The maximal concentration of DMSO in the diluted solutions was <0.2%. As expected, 0.2% DMSO had no effect on cell survival (data not shown). Accordingly, cell viability in the presence of drugs was expressed as percent change with respect to the cell treated with vehicle alone, after proper subtraction of blank absorbance.

[4] = tested on: skeletal-muscle sodium channels (NaV1.4); assay: Voltage-dependent block of INa at HP -140 and -70 mV (resting and inactivated state affinity); format: cell-based, Rana Esculenta; settings: for IC50: 0.3-Hz; for Ki: computed from Kr, K-70 and h∞ curve, read-out: Inactivated state block, calculated Ki
Text: The cut-end fiber was then bathed in an internal solution and mounted across three chamber partitions, which delineated four pools. Three strips of vaseline were applied over the fiber and carefully sealed to the fiber to reduce leakage. […] Four KCl/agar bridges electrodes connected the recording chamber to the voltage-clamp amplifier based on methods described by Hille and Campbell ([1976]). For recording sodium currents (INa), the solution in the pool A was replaced with the external solution and after about 10 min of equilibration the recordings were performed at 10°C. […] Particular care was taken to verify that no change occurred in the membrane area in pool A throughout the experiments. Sodium currents were recorded using an amplifier connected via a A/D and D/A Digidata 1,200 Interface (Axon) to a 486 DX2/66 personal computer and stored on the hard disk. The stimulation protocols and data acquisition were controlled by Clampex software (pClamp6; Axon Instruments, Foster City, CA, USA) (Mele et al., [2014]). The currents flowing in response to depolarizing command voltages were low pass filtered at 10 kHz (Frequency Devices, Haverhill, MA, USA), visualized on an oscilloscope and sampled at 20 kHz. When necessary, leak and capacities currents were subtracted by P/4 method. The acquired traces were analyzed offline using Clampfit software (pClamp6; Axon Instruments). […] The degree of use-dependent block was computed as the value of the steady-state INa, max at this point normalized to the current at the same point in the absence of drug. This parameter reflects the potency of the drug for blocking the channels under conditions of high-frequency stimulation (i.e., as occurs during myotonic action potential firing) (De Luca et al., [2003a],[b]). […] The concentration-dependence of the drug effect was calculated as the half-maximal blocking concentration (IC50) at −140 mV, which allowed calculation of the affinity constant for the resting state (Kr). […] The affinity constant of the drug for the inactivated channel (Ki) was the computed as described below. Steady-state inactivation (h∞) curves were determined by a cyclic protocol of pulse sequences. […] Muraglia et al., [2014]). All data were expressed as mean ± S.E.M. The IC50 values, in the various experimental conditions, were determined by using a non-linear least squares fit of the concentration-response curves to the following logistic equation: […] K is IC50; n is the logistic slope factor, and [drug] is the molar concentration of the compound (Talon et al., [2001]). […] Statistical significance of differences between pairs of mean values has been estimated by unpaired Student's t-test and considered significant for p < 0.05. Two-way ANOVA and Bonferroni post-hoc corrections have been used for multiple comparison of experimental data means. The statistical significance between IC50 values obtained from the fit was evaluated using a number of degrees of freedom equal to the total number of preparations determining each point of the curve minus the number of means determining the curve minus two for the free parameters. The measurements of ionization constants and lipophilicity were performed on a Sirius GLpKa analyzer for pH-metric pKa and LogP (Sirius Analytical Instruments Ltd-Forest Row-UK). Correlation analysis was evaluated by fitting the experimental data point to linear regression analysis. Nonlinear equation fitting and processing for data graphics were done by FigP Software (Biosoft, Cambridge, UK).

[5] = Ionization constants and lipophilicity (Sirius GLpKa analyzer); format: physicochemical; settings: for pKa: amine group of the drugs; for logD: pH 7.4, calculated from LogP and pKa values, read-out: Log D7.4
Procedure: (§4) The h∞ curves have been fitted with a single Boltzmann, and the potential at which 50% of the sodium channels were inactivated (Vh1/2) was calculated at the inflection point of the curves. Statistical significance of differences between pairs of mean values has been estimated by unpaired Student's t-test and considered significant for p < 0.05. Two-way ANOVA and Bonferroni post-hoc corrections have been used for multiple comparison of experimental data means. The statistical significance between IC50 values obtained from the fit was evaluated using a number of degrees of freedom equal to the total number of preparations determining each point of the curve minus the number of means determining the curve minus two for the free parameters. The measurements of ionization constants and lipophilicity were performed on a Sirius GLpKa analyzer for pH-metric pKa and LogP (Sirius Analytical Instruments Ltd-Forest Row-UK). Correlation analysis was evaluated by fitting the experimental data point to linear regression analysis. Nonlinear equation fitting and processing for data graphics were done by FigP Software (Biosoft, Cambridge, UK).

[6] = tested on: skeletal-muscle sodium channels (NaV1.4); assay: Recovery from inactivation of drug-bound sodium channels; open channel block check; format: cell-based, Rana Esculenta; settings: 3 and 10 μM
[7] = tested on: skeletal-muscle sodium channels (NaV1.4); assay: Steady-state inactivation (h∞) curves of sodium channels; format: cell-based, Rana Esculenta; settings: for Shift in the h∞ curves toward more negative potentials: 10 μM; for Vh1/2: 10 μM drug
Procedure: Steady-state inactivation (h∞) curves were determined by a cyclic protocol of pulse sequences.
as §4
Fig. S2: Steady-state inactivation (h∞) curves were determined by a cyclic protocol of pulse […]
duration, and a test pulse to -20 mV for 10ms; after a pause of 3 s, the sequence was repeated 18-20 times with the prepulse potential value increased each time in 5 mV steps. A more quantitative estimate of the absolute affinity constant for the inactivated state (Ki) was obtained from the voltage dependent distribution of the channels in the resting (h) and inactivated state (1-h) obtained from […]

C2C12 cells [8] = assay: Cell culture cytotoxicity assay (CCK-8), 8 h incubation; format: cell-based, Murine
Procedure: as §1, §2, §3

[9] = 0.3-Hz, 10°C, read-out: Tonic block IC50
[10] = 10-Hz trains, read-out: Use-dependent block 10-Hz IC50
[11] = HP -70 mV, read-out: Voltage-dependent block HP-70 mV IC50, K-70
[12] = HP -140 mV, resting state, read-out: Voltage-dependent block HP-140 mV IC50, Kr

SMILES	IC50 [2, 9] [µM]	IC50 [2, 10] [µM]	Cyto-protective effect (C2C12 cells [3])	IC50 [4, 11] [µM]	IC50 [4, 12] [µM]	Ki [4] [µM]	logP [5]	pKa [5]	logD [5]	further results
Cc1cccc(C)c1OCC(C)N (stereo not drawn) [Mex, 2-(2,6-dimethylphenoxy)-1-amino-propanemethylethylamine, reference compound]	75.3 ± 8	23.6 ± 2.8	moderate, albeit significant, cyto-protective effect	1.9 ± 0.2	148 ± 20	2	–	–	–	IC50 at 8 h [1]: 775 ± 88 µM; R (IC50 of Mex / IC50 of compound), tonic block [2]: 1; R (IC50 of Mex / IC50 of compound), use-dependent block 10-Hz [2]: 1
Cc1cccc(C)c1OC[C@@H](C)N [R-Mex, reference compound]	74 ± 8	31 ± 8	–	–	–	–	–	–	–	–
Cc1cccc(C)c1OCC(NC(=O)C1=CC(C)(C)NC1(C)C)C(C)C (stereo not drawn) [CI16, N-{1-[(2,6-dimethylphenoxy)methyl]-2-methylpropyl}-2,2,5,5-tetramethyl-2,5-dihydro-1H-pyrrole-3-carboxamide]	12.6 ± 0.2	0.6 ± 0.1	remarkable cyto-protection; also recorded: a decrease in efficacy	1.8 ± 0.4	7.7 ± 0.5	1.8	3.2 ± 0.3	8.53 ± 0.01	2.1 ± 0.1	Time constants for recovery from inactivation [6]: slowest time constants; Fold more potent than Me5, tonic block ([2]; Me5 ref De Luca et al., 2000): ~2 fold; Fold more potent than Me5, use-dependent block ([2]; Me5 ref De Luca et al., 2000): ~9 fold; BT/BUD (IC50 TB/IC50 UDB 10-Hz) [2]: 21; Shift in the h∞ curves toward more negative potentials [7]: 6.3 ± 1.1 mV; Vh1/2 [7]: -83.7±0.1 mV
OO [H2O2]	–	–	–	–	–	–	–	–	–	IC50 (C2C12 cells [8]; 8 h of incubation, read-out: Cytotoxic effect IC50): 292 ± 25 µM
Cc1cccc(C)c1OCC(C)NC(=O)C1=CC(C)(C)NC1(C)C (stereo not drawn) [VM11, N-[2-(2,6-dimethylphenoxy)-1-methylethyl]-2,2,5,5-tetramethyl-2,5-dihydro-1H-pyrrole-3-carboxamide]	23.4 ± 0.9	2 ± 0.1	remarkable cyto-protection; also recorded: maintained the same cyto-protection observed between 3 and 30 μM	4.5 ± 0.1	15.5 ± 0.6	4.2	2.8 ± 0.1	8.5 ± 0.1	1.7 ± 0.1	BT/BUD (IC50 TB/IC50 UDB 10-Hz) [2]: 11.7 and 12; R (IC50 of Mex / IC50 of compound), use-dependent block 10-Hz ([2]; relative potency toward Mex, racemic form): 12; Cell protection (C2C12 cells [3]; C2C12, 300 μM H2O2, drug 100 μM): 43.5 ± 2.03%; Shift in the h∞ curves toward more negative potentials [7]: 3.6 ± 1.1 mV; Vh1/2 [7]: -82±0.3 mV
Cc1cccc(C)c1OC[C@H](C)N [S-Mex, reference compound]	127 ± 2.8	32 ± 7	–	–	–	–	–	–	–	–
CC(C)(C)n1nc(-c2ccc(Cl)cc2)c2c(N)ncnc21 [PP2]	–	–	–	–	–	–	–	–	–	Cytotoxicity compared with Mex and its analogs (C2C12 cells [8]; 10-100 μM): more cytotoxic than Mex and its analogs
Cc1cccc(C)c1OCC(N)C(C)C (stereo not drawn) [Me5, 1-(2,6-dimethylphenoxy)-3-methyl-2-butanamine]	–	–	moderate, albeit significant, cyto-protective effect	–	–	–	2.72 ± 0.02	8.97 ± 0.03	1.1 ± 0.1	–
